Data: patent US4863748A, “Dietary products and uses comprising methylsulfonylmethane” (priority 1986, dated 1989)
Counter-ions that a name gives are not always drawn.

Legend:
[1] = system: pain in the mid-back region; experiment: Acute pain, comparison with codeine, urinary calculi, subject three (Example 32); format: in vivo, human; conditions: for pain relief: subject three
Method: Methylsulfonylmethane was compared with codeine for the control of pain in subject three, a person who awakened in the early morning with excruciating pain in the mid-back region, so intense it was difficult to pin-point a specific region. […] Analgesic requirements were 1/2 grain codeine with aspirin every two hours. […] The intense pain returned. The subject was given 1.5 g of methylsulfonylmethane dissolved in 1/2 glass of warm water. At 0.5 hours after taking the methylsulfonylmethane, the pain had essentially disappeared. Methylsulfonylmethane (1.5 g/day) was continued until the afternoon of the third day, when X-ray confirmed that the calculi yet obstructed the ureter. Subject was switched again to codeine with aspirin (1/2 grain×2 hours). […] Methylsulfonylmethane was again administered (1.5 g×4 hours). On day 5 the calculi passed. Recovery was uneventful, requiring neither codeine, methylsulfonylmethane,nor a urinary tract antimicrobial.

arthritis = experiment: Canine arthritis and other sources of pain (Example 30); format: in vivo, dog; conditions: prior treatment
From the text: In each case the methylsulfonylmethane was admixed with the animal's food just prior to feeding.
This animal, although owned by a veterinarian, had not responded to a variety of therapeutic regimens over the previous 12 months. Methylsulfonylmethane was given to this dog in its food at a level of 1.5 grams b.i.d. X 1 month.
It was mobile but walked with obvious difficulty and discomfort. The animals was refractory to both cortisone and phenylbutazone.
The animal had not responded to either cortisone nor phenylbutazone and its condition was deteriorating rapidly. Methylsulfonylmethane was included in its diet at 1 gm/day b.i.d. After one week, the dog appeared to be pain-free.

Trichomonas vaginalis = experiment: Treatment of Trichomonas vaginalis infection in subjects (Example 28(a)); format: in vivo, human; conditions: human, in vivo
From the text: Both had prior courses of therapy for this disorder without adequate response. […]
One subject was later reinfected by their sexual partner but the reinfection was cleared employing a daily douche of 5% aqueous methylsulfonylmethane for one week.

platelet count = experiment: Low platelet count in lupus erythematosus (Example 22); format: in vivo, human; conditions: adult female, after prednisone therapy, before methylsulfonylmethane
From the text: Methylsulfonylmethane administered orally raised the platelet count of an adult with lupus erythematosus from 84,000 (after prednisone therapy) to 200,000 over a 2-year period (1.5 gm/day in 3 doses).

[2] = system: scarification of the right cheek pouch; experiment: Wound healing of the cheek pouch in hamsters (Example 17); format: in vivo; conditions: 0.1 gm/kg methylsulfonylmethane alone or 100 mg ascorbic acid alone in feed; controls day 4 and 5
Method: Four sets of 5 hamsters were subject to scarification of the right cheek pouch, using standard methodology. One week prior to pouch injury, one set was started on a daily regimen of 0.1 gm/kg of methylsulfonylmethane in the diet of standard hamster feed, a second group was given 0.1 gm/kg of methylsulfonylmethane plus 100 mg of ascorbic acid in the same feed, a third group was given only 100 mg of ascorbic acid in the same feed, and the last group, fed only the feed, was held as control. Daily post-scarification examination was made to determine the rate of injury repair.

CC(=O)Oc1ccccc1C(=O)O [Aspirin]
pain relief [1]: ineffective

COc1ccc2c3c1O[C@H]1[C@@H](O)C=C[C@H]4[C@@H](C2)N(C)CC[C@@]341 [codeine]
mental confusion ([1]; day two, 1/2 grain codeine with aspirin every two hours): mental confusion
pain relief [1]: acceptable relief

C[C@]12CCC(=O)C=C1CC[C@@H]1[C@@H]2C(=O)C[C@@]2(C)[C@H]1CC[C@]2(O)C(=O)CO [cortisone, reference compound]
response, Dog A (arthritis): not responsive
response, Dog C (arthritis): refractory
response, Dog D (arthritis): not responded

Cc1ncc([N+](=O)[O-])n1CCO [metronidazole HCL, reference compound]
stomach upset and nausea (Trichomonas vaginalis): side effect experienced by one subject

CCCCC1C(=O)N(c2ccccc2)N(c2ccccc2)C1=O [phenylbutazone, reference compound]
response, Dog A (arthritis): not responsive
response, Dog C (arthritis): refractory
response, Dog D (arthritis): not responded

C[C@]12C=CC(=O)C=C1CC[C@@H]1[C@@H]2C(=O)C[C@@]2(C)[C@H]1CC[C@]2(O)C(=O)CO [prednisone, reference compound]
platelet count (platelet count): 84,000

O=C1O[C@H]([C@@H](O)CO)C(O)=C1O [vitamin C, ascorbic acid, reference compound]
day on which the 36-hour combination healing result was matched [2]: three
